For orientation: IC50 means the midpoint of a concentration-inhibition curve.

Counter-ions that a name gives are not always drawn.

The target of data set [1] is T1, Na^+ /H^+ exchanger of rabbit erythrocytes (Oryctolagus cuniculus, UniProt P23791).
T1 construct: exchanger of rabbit erythrocytes; from tissue; host or cells: erythrocytes in blood of cholesterol-fed New Zealand White rabbits
The data set can be described thus: Inhibition of the Na^+ /H^+ exchanger of rabbit erythrocytes (amiloride-sensitive sodium influx, flame photometry). The format is cell-based, rabbit (New Zealand White). As to conditions: pH 7.4, 37° C., hyperosmolar salt/sucrose medium. An excerpt:
Inhibition of the Na^+ /H^+ exchanger of rabbit erythrocytes
New Zealand White rabbits (Ivanovas) received a standard diet containing 2% cholesterol for six weeks in order to activate the Na^+ /H^+ exchange and thus to be able to determine, by flame photomerry, the Na^+ influx into the erythrocytes via Na^+ /H^+ exchange. The blood was removed from the aural arteries and rendered incoagulable using 25 IU of potassium heparin. A part of each sample was used for the duplicate determination of the hematocrit by means of centrifugation. Aliquots of in each case 100 μl were used for measuring the initial Na^+ content of the erythrocytes.
In order to determine the amiloride-sensitive sodium influx, 100 μl of each blood sample were in each case incubated, at pH 7.4 and 37° C., in 5 ml of a hyperosmolar salt/sucrose medium (mmol/1: 140 NaCl, 3 KCl, 150 sucrose, 0.1 ouabain, 20 tris(hydroxymethyl)aminomethane). The erythrocytes were then washed three times with ice-cold MgCl2 /ouabain solution ([…]: 112 MgCl2, 0.1 ouabain) and hemolyzed in 2.0 ml of distilled water. The intracellular sodium content was determined by flame photometry.
The net influx of Na^+ was calculated from the difference between the initial sodium values and the sodium content of the erythrocytes following incubation. The amiloride-inhibitable sodium influx was calculated from the difference in the sodium content of the erythrocytes following incubation with and without amiloride 3×10^-4 mol/1. This method was also employed in the case of the compounds according to the invention.

Another data set deals with cardiac arrhythmias. The following applies: cited from earlier work.

T1 sequence (P23791 whole entry): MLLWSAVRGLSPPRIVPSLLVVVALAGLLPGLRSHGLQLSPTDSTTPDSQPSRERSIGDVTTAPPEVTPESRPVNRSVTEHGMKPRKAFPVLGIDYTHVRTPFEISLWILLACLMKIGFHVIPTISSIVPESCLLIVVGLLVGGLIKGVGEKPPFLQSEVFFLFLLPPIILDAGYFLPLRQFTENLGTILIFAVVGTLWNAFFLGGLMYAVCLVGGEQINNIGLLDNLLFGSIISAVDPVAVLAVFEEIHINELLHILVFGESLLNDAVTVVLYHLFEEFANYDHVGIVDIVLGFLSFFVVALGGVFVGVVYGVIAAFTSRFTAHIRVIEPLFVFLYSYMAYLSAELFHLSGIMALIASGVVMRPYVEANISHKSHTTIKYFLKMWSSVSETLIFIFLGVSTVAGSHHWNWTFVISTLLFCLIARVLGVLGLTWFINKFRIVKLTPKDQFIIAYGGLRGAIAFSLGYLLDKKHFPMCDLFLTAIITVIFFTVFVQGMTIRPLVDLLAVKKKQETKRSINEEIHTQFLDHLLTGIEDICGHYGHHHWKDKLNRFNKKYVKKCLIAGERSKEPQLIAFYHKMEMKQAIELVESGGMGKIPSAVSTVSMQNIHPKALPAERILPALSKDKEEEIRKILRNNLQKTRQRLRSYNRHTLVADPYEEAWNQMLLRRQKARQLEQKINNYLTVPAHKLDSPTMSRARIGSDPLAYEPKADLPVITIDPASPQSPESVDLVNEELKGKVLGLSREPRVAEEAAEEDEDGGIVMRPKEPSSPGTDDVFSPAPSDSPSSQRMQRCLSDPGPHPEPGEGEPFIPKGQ

Turning to `CS(=O)(=O)c1cc(C(=O)N=C(N)N)ccc1Oc1ccc(-c2ccccn2)cc1` [Example 5, 4-[4-(2-Pyridyl)phenoxy]-3-methylsulfonylbenzoylguanidine, dihydrochloride], the IC50 in data set [1] was determined as 300 nM.

With `CS(=O)(=O)c1cc(C(=O)N=C(N)N)ccc1Oc1ccc(-c2nccn2Cc2ccccc2)cc1` [Example 1, 4-(1-Benzylimidazol-2-yl)phenoxy-3-methylsulfonylhenzoylguanidine, dihydrochloride], the IC50 in data set [1] turned out to be 300 nM.

As to `CS(=O)(=O)c1cc(C(=O)N=C(N)N)ccc1Oc1ccc(-c2cccnc2)cc1` [Example 3, 4-[4-(3-Pyridyl)phenoxy]-3-methylsulfonylbenzoylguanidine, dihydrochloride], the IC50 in data set [1] was determined as 200 nM.

Regarding `CS(=O)(=O)c1cc(C(=O)N=C(N)N)ccc1Oc1ccc(-c2ncc[nH]2)cc1` [Example 2, 4-(Imidazol-2-yl)phenoxy-3-methylsulfonylbenzoylguanidine, dihydrochloride], the concentration for half-maximal inhibition (IC50) in data set [1] amounted to 300 nM.

Take `N=C(N)NC(=O)c1nc(Cl)c(N)nc1N` [amiloride, Amiloride]: the antiarrhythmic effect result in the data set with cardiac arrhythmias (Circulation 79, 1257 to 1263 (1989)) is “only weakly expressed”. The “hypotensive and saluretic side effects” value in the data set with cardiac arrhythmias (in vivo) was “accompanied by hypotensive and saluretic effects”.

The values are drawn from patent US5719169A, “Substituted benzoylguanidines, their use as a medicament or diagnostic, and medicament containing them” (priority 1993, dated 1998).
